Assay [1] addresses TEAD1 protein (YAP Binding Domain) (Homo sapiens, UniProt P28347). Kind of assay: TEAD1 lipid pocket compound displacement assay (TR-FRET, Cy5-probe). The following applies: 60 minutes incubation at room temperature; TR-FRET 665 nm/620 nm; read-out: CDA IC50. A digest of the protocol:
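His-tagged TEAD1 YAP-binding domain pre-mixed with a Cy5-labelled lipid-pocket probe and Tb-anti-His antibody; compounds incubated with the complex 60 min at room temperature. TR-FRET read at 665/620 nm; IC50 from 4-parameter non-linear fit of probe displacement.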
Background: In TR-FRET formats the signal depends on donor and acceptor labels being close together.

The subject of another assay is NCI-H226. Kind of assay: 72H TEAD Proliferation Assay (Cell Titer-Glo 2.0). As to conditions: CTG 2.0, cell line not given. In kind it is cell-based. The method, then:
The effect of TEAD inhibition on cell proliferation was assayed using Cell Titer Glo (CTG) 2.0 to measure response in mesothelioma cell lines NCI-H226 (ATCC, #CRL-5826) and NCI-H28 (ATCC, #CRL-5820).
The 72H TEAD Proliferation assay utilizes Cell Titer-Glo 2.0 (Promega, #G9243) to measure the proliferation of cells in the presence or absence of compound. Cell Titer-Glo 2.0 determines the amount of viable cells by quantifying ATP (an indication of metabolically active cells). It utilizes the conversion of Luciferin to Oxyluciferin and a luminescent signal with the use of ATP to report the quantity of viable cells in culture. Within cells that are continually growing, ATP is being synthesized to meet their metabolic demands, meanwhile the opposite is true for cells that are dying or slowing down their proliferation and either no longer using ATP or are using less, respectively. The NF2-deficient NCI-H226 has been genetically validated as a cell line that is sensitive to TEAD inhibition. The NF2-wild type NCI-H28 has been genetically validated as a cell line that is not sensitive to TEAD inhibition and grows independently of TEAD activity.
Compounds were screened against the responsive NCI-H226 cell line to assess the compounds' ability to inhibit TEAD and cell growth. Compounds were also screened against the non-responsive NCI-H28 cell line to ascertain whether the inhibition of cell growth was due to inhibition of the target TEAD or whether the inhibition was due to off-target cytotoxicity.
1) Assay ready plates (ARPs) were prepared by Echo acoustic liquid handler. For each compound, duplicate of 10-point half-log dilution series were dispensed in a 384-well microplate (Corning 3571).
5) NCI-H226 or NCI-H28 cells were harvested from culture in Assay Medium 1 and the multidrop Combi reagent dispenser was used to seed cells at 500 cells per 50 ul in each well of the ARPs and one Corning 3571 plate without compounds for Time 0 (TO) readout.
6) The TO plate was incubated for 2 hours at 37° C. with 5% CO2 to allow cells to settle, then the CTG Assay was performed.
7) All ARPs were incubated for 72 hours at 37° C. with 5% CO2, then the CTG Assay was performed for Time 72H (T72) readout.
8) CTG Assay: Bravo liquid handler (Agilent) was used to add 25 ul of CTG 2.0 to all columns of the plate except for Column 24, which was used to subtract out the background. After CTG addition, plates were placed on shaker at 800 RPM for 15 minutes at room temperature and kept in the dark. Luminescence was measured using EnVision multilabel plate reader with ultra-sensitive detection module.
9) Data Analysis: First background luminescence (no CTG wells) was subtracted from luminescence reading of all wells, then TO luminescence was subtracted from T72 luminescence. To compare anti-proliferative effect of compounds, GI50 was obtained by fitting dose response curves with nonlinear regression curve fit.
Background: Cellular ATP, detected with luciferase, serves as a proxy for viable cell number.

For orientation: IC50 means the concentration at which inhibition is half-maximal. The GI50 is the concentration at which growth is held to half of that of the control. The low end stands for greater sensitivity of the cells, the high end for lower sensitivity of the cells.

Sequence of TEAD1 protein (YAP Binding Domain) (P28347 209-426 limits assumed): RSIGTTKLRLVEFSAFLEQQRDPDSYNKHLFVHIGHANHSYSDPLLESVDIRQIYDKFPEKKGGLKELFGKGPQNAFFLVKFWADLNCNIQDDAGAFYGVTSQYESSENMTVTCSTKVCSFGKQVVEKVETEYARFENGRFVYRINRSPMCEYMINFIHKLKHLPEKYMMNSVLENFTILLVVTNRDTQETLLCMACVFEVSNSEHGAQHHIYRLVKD

With `C=CC(=O)Nc1ccc(OCc2cccc(Cl)c2F)c(F)c1` [Compound 99, N-(4-((3-chloro-2-fluorobenzyl)oxy)-3-fluorophenyl)acrylamide], the concentration for half-maximal inhibition (IC50) in assay [1] was not above 250 nM. The same molecule yielded a GI50 in the assay on NCI-H226 (Homo sapiens, NCI-H226, 72 h) of more than 3000 nM.

As to `C=CC(=O)Nc1ccc(OCc2cccc(F)c2)c(F)c1` [Compound 100, N-(3-fluoro-4-((3-fluorobenzyl)oxy)phenyl)acrylamide], the IC50 in assay [1] was in the range of 250 to 500 nM. The molecule also yielded a concentration for 50% growth inhibition (GI50) in the assay with NCI-H226 (Homo sapiens, NCI-H226, 72 h) of more than 3000 nM.

In the case of `C=CC(=O)Nc1ccc(NCc2cccc(F)c2)c(F)c1` [Compound 101, N-(3-fluoro-4-((3-fluorobenzyl)amino)phenyl)acrylamide], the IC50 in assay [1] lay in the range of 500 to 2000 nM. Further, the GI50 with NCI-H226 (Homo sapiens, NCI-H226, 72 h) is 1000 to 3000 nM.

With `C=CC(=O)Nc1ccc(OCCC(F)(F)F)c(F)c1` [Compound 103, N-(3-fluoro-4-(3,3,3-trifluoropropoxy)phenyl)acrylamide], the IC50 in assay [1] was more than 2000 nM. Besides, the concentration for 50% growth inhibition (GI50) in the assay on NCI-H226 (Homo sapiens, NCI-H226, 72 h) was in the range of 1000 to 3000 nM.

Consider `C=CC(=O)Nc1ccc(OCc2cncc(C(F)(F)F)c2)c(F)c1` [Compound 104, N-(3-fluoro-4-((5-(trifluoromethyl)pyridin-3-yl)methoxy)phenyl)acrylamide], for which, in assay [1], the half-inhibitory concentration (IC50) lay in the range of 250 to 500 nM. In the assay on NCI-H226 (Homo sapiens, NCI-H226, 72 h), this molecule registered a GI50 of 250 to 1000 nM.

Consider `C=CC(=O)Nc1ccc(OC(C)c2cccc(C(F)(F)F)c2)c(F)c1` (stereo not drawn) [Compound 105, N-(3-fluoro-4-(1-(3-(trifluoromethyl)phenyl)ethoxy)phenyl)acrylamide], for which, in assay [1], the IC50 is not above 250 nM. This molecule also returned a GI50 with NCI-H226 (Homo sapiens, NCI-H226, 72 h) of 250 to 1000 nM.

Consider `C=CC(=O)Nc1ccc(Oc2cccc(F)c2)c(F)c1` [Compound 106, N-(3-fluoro-4-(3-fluorophenoxy)phenyl)acrylamide], for which the concentration for half-maximal inhibition (IC50) in assay [1] was not above 250 nM. In addition, the GI50 in the assay on NCI-H226 (Homo sapiens, NCI-H226, 72 h) is more than 3000 nM.

With `C=CC(=O)Nc1ccc(Oc2ccc(F)cc2)c(F)c1` [Compound 107, N-(3-fluoro-4-(4-fluorophenoxy)phenyl)acrylamide], the IC50 in assay [1] was not above 250 nM. In the assay on NCI-H226 (Homo sapiens, NCI-H226, 72 h), this molecule displayed a 50% growth inhibitory concentration (GI50) of 250 to 1000 nM.

As to `C=CC(=O)Nc1ccc(Nc2ccc(F)cc2)c(F)c1` [Compound 108, N-(3-fluoro-4-((4-fluorophenyl)amino)phenyl)acrylamide], the IC50 in assay [1] was more than 2000 nM. The molecule also displayed a GI50 in the assay with NCI-H226 (Homo sapiens, NCI-H226, 72 h) of 250 to 1000 nM.

As for `C=CC(=O)Nc1ccc(NCC2CCC(F)(F)CC2)c(F)c1` [Compound 109, N-(4-(((4,4-difluorocyclohexyl)methyl)amino)-3-fluorophenyl)acrylamide], the IC50 in assay [1] lay in the range of 250 to 500 nM. The same molecule yielded a GI50 in the assay on NCI-H226 (Homo sapiens, NCI-H226, 72 h) of 250 to 1000 nM.

For `C=CC(=O)Nc1ccc(Oc2cccc(C(C)(C)C)c2)c(F)c1` [Compound 110, N-(4-(3-(tert-butyl)phenoxy)-3-fluorophenyl)acrylamide], the IC50 in assay [1] is 250 to 500 nM. The GI50 in the assay on NCI-H226 (Homo sapiens, NCI-H226, 72 h) was 1000 to 3000 nM.

With `C=CC(=O)Nc1ccc(Oc2ccc(C(C)(C)C)cc2)c(F)c1` [Compound 111, N-(4-(4-(tert-butyl)phenoxy)-3-fluorophenyl)acrylamide], the IC50 in assay [1] was not above 250 nM. For the same molecule, the GI50 in the assay on NCI-H226 (Homo sapiens, NCI-H226, 72 h) lay within 250 to 1000 nM.

For `C=CC(=O)Nc1ccc(Oc2ccccc2)c(F)c1` [Compound 112, N-(3-fluoro-4-phenoxyphenyl)acrylamide], the IC50 in assay [1] lay within 250 to 500 nM. Further, in the assay with NCI-H226 (Homo sapiens, NCI-H226, 72 h), the GI50 is more than 3000 nM.

As for `C=CC(=O)Nc1ccc(Oc2cccc(C)c2)c(F)c1` [Compound 113, N-(3-fluoro-4-(m-tolyloxy)phenyl)acrylamide], the IC50 in assay [1] was not above 250 nM. This molecule also had a GI50 with NCI-H226 (Homo sapiens, NCI-H226, 72 h) of 1000 to 3000 nM.

Consider `C=CC(=O)Nc1ccc(Oc2ccc(C)cc2)c(F)c1` [Compound 114, N-(3-fluoro-4-(p-tolyloxy)phenyl)acrylamide], for which the IC50 in assay [1] was not above 250 nM. The same molecule yielded a GI50 with NCI-H226 (Homo sapiens, NCI-H226, 72 h) of more than 3000 nM.

For the molecule `C=CC(=O)Nc1ccc(OCc2cccc(C(F)(F)F)n2)c(F)c1` [Compound 115, N-(3-fluoro-4-((6-(trifluoromethyl)pyridin-2-yl)methoxy)phenyl)acrylamide], the IC50 in assay [1] lay within 250 to 500 nM. The GI50 in the assay with NCI-H226 (Homo sapiens, NCI-H226, 72 h) is not above 250 nM.

Turning to `C=CC(=O)Nc1ccc(OCc2ccnc(C(F)(F)F)c2)c(F)c1` [Compound 116, N-(3-fluoro-4-((2-(trifluoromethyl)pyridin-4-yl)methoxy)phenyl)acrylamide], the IC50 in assay [1] fell in the range of 250 to 500 nM. The molecule further registered a GI50 in the assay on NCI-H226 (Homo sapiens, NCI-H226, 72 h) of 250 to 1000 nM.

`C=CC(=O)Nc1ccc(OCc2cc(C(F)(F)F)ccn2)c(F)c1` [Compound 117, N-(3-fluoro-4-((4-(trifluoromethyl)pyridin-2-yl)methoxy)phenyl)acrylamide]: the IC50 in assay [1] fell in the range of 250 to 500 nM. In the assay with NCI-H226 (Homo sapiens, NCI-H226, 72 h), this molecule showed a GI50 of 250 to 1000 nM.

Regarding `C=CC(=O)Nc1ccc(C2COc3ccccc3C2)c(F)c1` (stereo not drawn) [Compound 120, N-(4-(chroman-3-yl)-3-fluorophenyl)acrylamide], the IC50 in assay [1] is 250 to 500 nM. The same molecule returned a GI50 with NCI-H226 (Homo sapiens, NCI-H226, 72 h) of more than 3000 nM.

In the case of `C=CC(=O)Nc1ccc(C2COc3ccccc3N2)c(F)c1` (stereo not drawn) [Compound 121, N-(4-(3,4-dihydro-2H-benzo[b][1,4]oxazin-3-yl)-3-fluorophenyl)acrylamide], the IC50 in assay [1] fell in the range of 500 to 2000 nM. This molecule also registered a GI50 in the assay with NCI-H226 (Homo sapiens, NCI-H226, 72 h) of more than 3000 nM.

For the molecule `C=CC(=O)Nc1ccc(C2COc3ccccc3O2)c(F)c1` (stereo not drawn) [Compound 122, N-(4-(2,3-dihydrobenzo[b][1,4]dioxin-2-yl)-3-fluorophenyl)acrylamide], the 50% inhibitory concentration (IC50) in assay [1] is not above 250 nM. Also, the GI50 in the assay on NCI-H226 (Homo sapiens, NCI-H226, 72 h) is more than 3000 nM.

Consider `C=CC(=O)Nc1ccc(OC(C)c2cccc(F)c2)c(F)c1` (stereo not drawn) [Compound 124, N-(3-fluoro-4-(1-(3-fluorophenyl)ethoxy)phenyl)acrylamide], for which the IC50 in assay [1] lay in the range of 250 to 500 nM. In the assay with NCI-H226 (Homo sapiens, NCI-H226, 72 h), this molecule yielded a GI50 of more than 3000 nM.

In the case of `CN(C)C/C=C/C(=O)Nc1ccc(OCc2cccc(F)c2)c(F)c1` [Compound 125, (E)-4-(dimethylamino)-N-(3-fluoro-4-((3-fluorobenzyl)oxy)phenyl)but-2-enamide], the IC50 in assay [1] was more than 2000 nM. The molecule further yielded a GI50 in the assay with NCI-H226 (Homo sapiens, NCI-H226, 72 h) of more than 3000 nM.

Regarding `C=C=CC(=O)Nc1ccc(OCc2cccc(F)c2)c(F)c1` [Compound 126], in assay [1], the IC50 was not above 250 nM. In the assay with NCI-H226 (Homo sapiens, NCI-H226, 72 h), the GI50 lay in the range of 1000 to 3000 nM.

On to `C=CC(=O)Nc1cnc(OCc2cccc(F)c2)c(F)c1` [Compound 129, N-(5-fluoro-6-((3-fluorobenzyl)oxy)pyridin-3-yl)acrylamide], for which the IC50 in assay [1] fell in the range of 250 to 500 nM. This molecule also had a GI50 in the assay with NCI-H226 (Homo sapiens, NCI-H226, 72 h) of more than 3000 nM.

Take `C=CC(=O)Nc1cc2nc(CCC(C)C)oc2cc1F` [Compound 132, N-(6-fluoro-2-isopentylbenzo[d]oxazol-5-yl)acrylamide]: in assay [1], the IC50 fell in the range of 250 to 500 nM. Besides, the 50% growth inhibitory concentration (GI50) in the assay with NCI-H226 (Homo sapiens, NCI-H226, 72 h) was not above 250 nM.

As to `C=CC(=O)Nc1cc2nc(CC3CC3)oc2cc1F` [Compound 134, N-(2-(cyclopropylmethyl)-6-fluorobenzo[d]oxazol-5-yl)acrylamide], the IC50 in assay [1] is more than 2000 nM. This molecule registered a 50% growth inhibitory concentration (GI50) in the assay on NCI-H226 (Homo sapiens, NCI-H226, 72 h) of 1000 to 3000 nM.

Turning to `C=CC(=O)Nc1cc2nc(C3CCC(F)(F)CC3)oc2cc1F` [Compound 135, N-(2-(4,4-difluorocyclohexyl)-6-fluorobenzo[d]oxazol-5-yl)acrylamide], the IC50 in assay [1] is 500 to 2000 nM. Further, the GI50 with NCI-H226 was not above 250 nM.

`C=CC(=O)Nc1cc2nc(CC3CCC(F)(F)CC3)oc2cc1F` [Compound 136, N-(2-((4,4-difluorocyclohexyl)methyl)-6-fluorobenzo[d]oxazol-5-yl)acrylamide]: the IC50 in assay [1] was 250 to 500 nM. The GI50 with NCI-H226 (Homo sapiens, NCI-H226, 72 h) was in the range of 250 to 1000 nM.

Regarding `C=CC(=O)Nc1cc2nc(Cc3ccccc3)oc2cc1F` [Compound 137, N-(2-benzyl-6-fluorobenzo[d]oxazol-5-yl)acrylamide], in assay [1], the IC50 was 250 to 500 nM. Also, the GI50 with NCI-H226 (Homo sapiens, NCI-H226, 72 h) is more than 3000 nM.

(Values after patent US20230115350A1 (Cedilla Therapeutics, Inc., priority 2021, published 2023).)
